Laboratory results as given in US20240374587A1, “MEDICINE FOR PREVENTION AND TREATMENT OF DISEASES LINKED TO ANTI-OBESITY ACTIVITY” (Shionogi & Co., Ltd., priority 2021, published 2024).

Tests used:
[1] = molecular target: human MGAT2 (Homo sapiens (Human), UniProt Q3SYC2); test: Measurement of human MGAT2 inhibitory activity; type: biochemical; conditions: concentration exhibiting 50% enzyme inhibition
Method: Solutions of the compounds of the present invention in DMSO were each aliquoted into 0.2·μL portions in a 384-well polystyrene microplate produced by Corning Incorporated, and 5 μL of an enzyme solution prepared with an assay buffer (100 mmol/L phosphate buffer (pH 7.4) containing 2 mmol/L DTT) and 5 μL of a substrate solution (100 mmol/L phosphate buffer (pH 7.4), 30 μmol/L 2-Oleoylglycerol, 10 μmol/L Oleoyl-CoA) were added thereto, and the resultant was stirred and centrifuged, and incubated in a moist chamber at room temperature for 1 hour. After enzymatic reaction, 50 μL of a quenching solution (containing 0.2 μmol/L Diolein-d5, 0.4% formic acid, and 50% isopropanol) containing Internal Standard (IS) was added to terminate the reaction, and the resultant was sealed in a plate produced by Shimadzu GLC Ltd., and then stirred and centrifuged, and measurement was performed by using an electrospray ionization method with a RapidFire360 and Agilent 6550 Q-TOF mass spectrometer. Diolein as a reaction product (P) of 2-Oleoylglycerol as the substrate and an ammonium adduct ion of the IS were detected, and the peak intensity ratio, P/IS, was calculated from the peak heights to evaluate the inhibitory activity. Inhibitory activities with/without addition of enzyme were defined as Control (+)/Control (−), respectively, and the respective % inhibitions were defined as 0% inhibition and 100% inhibition. The inhibitory activity was calculated from the formula below with TIBCO Spotfire (produced by TIBCO Software Inc.) with the peak intensity ratio, P/IS, at the time of addition of the compound of the present invention being as Sample: […]

[2] = test system: C57BL/6j mice (DIO mice); test: Anti-obesity effect test in DIO mice (body weight, food consumption); type: in vivo; design: concentration or dose not given beside the values; conditions: for Rate of decrease in body weight relative to control group: at final administration (Day 0 to Day 35, once a day)
Method: The anti-obesity effect of the compound and/or agent according to the present invention was examined by using C57BL/6j mice (DIO mice) provided with a high-fat diet (TestDiet; 58Y1).
Five-week-old male C57BL/6j mice (CLEA Japan. Inc.) were purchased, and grown with feeding of a high-fat diet under 12-hour light-dark cycles for 4 weeks to produce DIO mice. A medium (0.5% HPMC and physiological saline) was administered once a day from 3 weeks before administration of the compound. Randomization was performed for grouping (n=9 to 10) on the basis of body weight and change in food consumption during the period of administration for conditioning. From Day 0 to Day 35, gavage of vehicle (0.5% HPMC and physiological saline) (hereinafter, Control group), gavage of Compound (A) according to the present invention (hereinafter, (A)-administration group), subcutaneous administration of GLP-1 formulation (liraglutide or semaglutide) as Compound (B) according to the present invention (hereinafter, (B)-administration group), or both (hereinafter, the combined administration group) were performed once a day. The GLP-1 formulation was formulated in an increasing dose, and liraglutide and semaglutide were administered at 4 to 20 μg/kg and:3 to 15 μg/kg, respectively, once a day. During the administration period, daily body weight measurement and food consumption measurement once a week were performed.

Sequence of human MGAT2 (Q3SYC2 whole entry): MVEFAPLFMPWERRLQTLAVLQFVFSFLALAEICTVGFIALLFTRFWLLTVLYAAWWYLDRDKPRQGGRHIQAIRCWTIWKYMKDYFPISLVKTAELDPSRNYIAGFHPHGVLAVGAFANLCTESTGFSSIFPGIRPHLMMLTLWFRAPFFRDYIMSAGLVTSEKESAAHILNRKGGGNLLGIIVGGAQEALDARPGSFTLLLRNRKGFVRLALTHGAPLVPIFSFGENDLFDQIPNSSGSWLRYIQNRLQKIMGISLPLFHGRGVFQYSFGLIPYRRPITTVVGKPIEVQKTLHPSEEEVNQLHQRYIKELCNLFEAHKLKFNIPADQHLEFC

Molecule	IC50 [1] [nM]	further results
CCS(=O)(=O)CC(=O)Nc1c(-c2ccc(C)cn2)nn2c1C(=O)N[C@@]1(CCOc3cc(F)cc(F)c31)C2 [I′-136]	4.97	
Cc1ccc(-n2nc3c(c2NC(=O)CS(C)(=O)=O)C(=O)N[C@@]2(CCOc4cc(OCC(F)(F)F)ccc42)C3)nc1 [Compound I-275]	2	
CCCCCCCCCCCCCCCC(=O)N[C@@H](CCC(=O)NCCCC[C@H](NC(=O)[C@H](C)NC(=O)[C@H](C)NC(=O)[C@H](CCC(N)=O)NC(=O)CNC(=O)[C@H](CCC(=O)O)NC(=O)[C@H](CC(C)C)NC(=O)[C@H](Cc1ccc(O)cc1)NC(=O)[C@H](CO)NC(=O)[C@H](CO)NC(=O)[C@@H](NC(=O)[C@H](CC(=O)O)NC(=O)[C@H](CO)NC(=O)[C@@H](NC(=O)[C@H](Cc1ccccc1)NC(=O)[C@@H](NC(=O)CNC(=O)[C@H](CCC(=O)O)NC(=O)[C@H](C)NC(=O)[C@@H](N)Cc1cnc[nH]1)[C@@H](C)O)[C@@H](C)O)C(C)C)C(=O)N[C@@H](CCC(=O)O)C(=O)N[C@@H](Cc1ccccc1)C(=O)N[C@H](C(=O)N[C@@H](C)C(=O)N[C@@H](Cc1c[nH]c2ccccc12)C(=O)N[C@@H](CC(C)C)C(=O)N[C@H](C(=O)N[C@@H](CCCNC(=N)N)C(=O)NCC(=O)N[C@@H](CCCNC(=N)N)C(=O)NCC(=O)O)C(C)C)[C@@H](C)CC)C(=O)O [Liraglutide, liraglutide, reference compound]		Rate of decrease in food consumption relative to control group ([2]; 1st week of administration, liraglutide study): 4.6%; Rate of decrease in food consumption relative to control group ([2]; 2nd week of administration, liraglutide study): 9.4%; Rate of decrease in food consumption relative to control group ([2]; 3rd week of administration, liraglutide study): 3.1%; Rate of decrease in food consumption relative to control group ([2]; 4th week of administration, liraglutide study): 2.4%; Rate of decrease in food consumption relative to control group ([2]; 5th week of administration, liraglutide study): 1.5%; Rate of decrease in body weight relative to control group ([2]; liraglutide study (FIG. 1)): 4.2%
CS(=O)(=O)CC(=O)Nc1c(-c2ccc(Cl)cn2)nn2c1C(=O)N[C@]1(CCOc3cc(F)cc(F)c31)C2 [I′-151]	5.33	
CS(=O)(=O)CC(=O)Nc1c(-c2ccc(Cl)cn2)nn2c1C(=O)N[C@@]1(CCOc3cc(F)cc(F)c31)C2 [I′-137]	1.53	
CCOc1ccc2c(c1)OCC[C@]21Cn2nc(-c3ccc(F)c(F)c3)c(NC(=O)CS(C)(=O)=O)c2C(=O)N1 [I′-133]	1.39	
Cc1ccc(-c2nn3c(c2NC(=O)CS(C)(=O)=O)C(=O)N[C@@]2(CCc4cc(OCC(F)(F)F)ccc42)C3)cc1 [I′-020]	1.97	
CS(=O)(=O)CC(=O)Nc1c2c(nn1-c1ccc(C#N)cn1)C[C@]1(CCc3cc(OCC(F)(F)F)ccc31)NC2=O [Compound I-190]	2.9	
Cc1ccc(-n2nc3c(c2NC(=O)CS(C)(=O)=O)C(=O)N[C@@]2(CCc4cc(OCCCC(F)(F)F)ccc42)C3)nn1 [II-103]	1.61	
CS(=O)(=O)CC(=O)Nc1c(CCC2CC2)nn2c1C(=O)N[C@@]1(CCc3cc(OCC(F)(F)F)ccc31)C2 [I′-046]	1.17	
CS(=O)(=O)CC(=O)Nc1c(-c2ccc(C3CC3)cn2)nn2c1C(=O)N[C@@]1(CCOc3cc(F)cc(F)c31)C2 [I′-143]	3.43	
CS(=O)(=O)CC(=O)Nc1c2c(nn1-c1ccc(F)cn1)C[C@]1(CCOc3cc(OCC(F)(F)F)ccc31)NC2=O [II-295]	< 1	
CS(=O)(=O)CC(=O)Nc1c(-c2ccc(F)c(F)c2)nn2c1C(=O)N[C@@]1(CCOc3cc(F)cc(F)c31)C2 [I′-126]	1.59	
CCS(=O)(=O)CC(=O)Nc1c(-c2ccc(F)cn2)nn2c1C(=O)N[C@@]1(CCc3cc(F)cc(F)c31)C2 [I′-123]	8.48	
CS(=O)(=O)CC(=O)Nc1c2c(nn1-c1ccccn1)C[C@]1(CCc3cc(OCCCC(F)(F)F)ccc31)NC2=O [Compound I-023]	6.5	
CS(=O)(=O)CC(=O)Nc1c2c(nn1-c1ccc(F)c(F)c1)C[C@]1(CCOc3cc(CCC(F)(F)F)ccc31)NC2=O [II-225]	1.14	
CS(=O)(=O)CC(=O)Nc1c2c(nn1CCC1CC1)C[C@]1(CCc3cc(OCC(F)(F)F)ccc31)NC2=O [Compound I-008]	2.78	
CS(=O)(=O)CC(=O)Nc1c2c(nn1CCCOC(F)(F)F)C[C@]1(CCc3cc(OCC(F)(F)F)ccc31)NC2=O [Compound I-253]	1.4	
Cc1ccc(-n2nc3c(c2NC(=O)CS(C)(=O)=O)C(=O)N[C@@]2(CCOc4cc(C5CC5)ccc42)C3)nc1 [II-168]	1.88	
Cc1ccc(-c2nn3c(c2NC(=O)CS(C)(=O)=O)C(=O)N[C@@]2(CCOc4cc(F)cc(F)c42)C3)nc1 [I′-124]	6.5	
CS(=O)(=O)CC(=O)Nc1c2c(nn1-c1ccc(C(F)F)cc1)C[C@]1(CCc3cc(OCC(F)(F)F)ccc31)NC2=O [II-174]	2.16	

Molecule	IC50 [1] [nM]	further results
Cc1cc(-n2nc3c(c2NC(=O)CS(C)(=O)=O)C(=O)N[C@@]2(CCOc4cc(OCCCC(F)(F)F)ccc42)C3)no1 [II-233]	0.22	
CS(=O)(=O)CC(=O)Nc1c(-c2ccc(Cl)cn2)nn2c1C(=O)N[C@@]1(CCc3cc(F)cc(F)c31)C2 [I′-142]	2.88	
CS(=O)(=O)CC(=O)Nc1c(-c2ccc(C(F)F)cc2)nn2c1C(=O)N[C@@]1(CCOc3cc(F)cc(F)c31)C2 [I′-145]	2.9	
CS(=O)(=O)CC(=O)Nc1c2c(nn1CCCC(F)(F)F)C[C@@]1(CCc3cc(OCC(F)(F)F)ccc31)NC2=O [Compound I-212]	6.9	
semaglutide [reference compound]		Rate of decrease in food consumption relative to control group ([2]; 1st week of administration, semaglutide study): 8.5%; Rate of decrease in food consumption relative to control group ([2]; 2nd week of administration, semaglutide study): 33.1%; Rate of decrease in food consumption relative to control group ([2]; 3rd week of administration, semaglutide study): 18.2%; Rate of decrease in food consumption relative to control group ([2]; 4th week of administration, semaglutide study): 10.9%; Rate of decrease in food consumption relative to control group ([2]; 5th week of administration, semaglutide study): 6.0%; Rate of decrease in body weight relative to control group ([2]; semaglutide study (FIG. 2)): 18.0%
CS(=O)(=O)CC(=O)Nc1c2c(nn1-c1ccccc1)C[C@]1(CCc3cc(OCCCC(F)(F)F)ccc31)NC2=O [Compound I-034]	18	
CS(=O)(=O)CC(=O)Nc1c(-c2ccc(F)c(F)c2)nn2c1C(=O)N[C@@]1(CCc3cc(OCC(F)(F)F)ccc31)C2 [I′-033]	0.73	
CS(=O)(=O)CC(=O)Nc1c(-c2ccc(F)cc2)nn2c1C(=O)N[C@@]1(CCOc3cc(OCC(F)(F)F)ccc31)C2 [I′-066]	0.85	
Cc1ccc(-c2nn3c(c2NC(=O)CS(C)(=O)=O)C(=O)N[C@@]2(CCc4cc(F)cc(F)c42)C3)nc1 [I′-139]	15.8	
CS(=O)(=O)CC(=O)Nc1c(-c2ccc(F)cc2)nn2c1C(=O)N[C@]1(CCc3cc(OCC(F)(F)F)ccc31)C2 [I′-079]	1.13	
CS(=O)(=O)CC(=O)Nc1c(CCC(F)(F)F)nn2c1C(=O)N[C@@]1(CCc3cc(OCC(F)(F)F)ccc31)C2 [I′-058]	9.78	
CS(=O)(=O)CC(=O)Nc1c(-c2ccc(C3CC3)cn2)nn2c1C(=O)N[C@@]1(CCc3cc(F)cc(F)c31)C2 [I′-141]	6.42	
Cc1ccc(-c2nn3c(c2NC(=O)CS(C)(=O)=O)C(=O)N[C@@]2(CCc4cc(OCC(F)(F)F)ccc42)C3)nc1 [I′-006]	2.25	
Cc1ccc(-n2nc3c(c2NC(=O)CS(C)(=O)=O)C(=O)N[C@@]2(CCOc4cc(F)cc(F)c42)C3)nc1 [II-203]	2.98	
Cc1ccc(-n2nc3c(c2NC(=O)CS(C)(=O)=O)C(=O)N[C@@]2(CCc4cc(OCC(F)(F)F)ccc42)C3)nc1 [Compound I-236]	2.8	
Cc1ccc(-n2nc3c(c2NC(=O)CS(C)(=O)=O)C(=O)N[C@@]2(CCOc4cc(OCC(C)(F)F)ccc42)C3)nc1 [II-151]	2.05	
CS(=O)(=O)CC(=O)Nc1c2c(nn1CCCOC(F)(F)F)C[C@@]1(CCc3cc(OCC(F)(F)F)cc(F)c31)NC2=O [II-093]	1.21	
CS(=O)(=O)CC(=O)Nc1c(-c2ccc(Cl)cn2)nn2c1C(=O)N[C@]1(CCc3cc(F)cc(F)c31)C2 [I′-147]	3.5	
CS(=O)(=O)CC(=O)Nc1c(-c2ccc(F)c(F)c2)nn2c1C(=O)N[C@@]1(CCc3cc(F)cc(F)c31)C2 [I′-130]	4.51	
CS(=O)(=O)CC(=O)Nc1c(-c2ccc(C(F)F)cn2)nn2c1C(=O)N[C@@]1(CCOc3cc(F)cc(F)c31)C2 [I′-153]	2.23	
